This is an account of results in BindingDB's records for patent US10696638 (INDUSTRIAL TECHNOLOGY RESEARCH INSTITUTE, 2020).

The experiment deals with Rho-associated protein kinase 2 (Homo sapiens, UniProt O75116). Briefly: ELISA Assay. The method, then: ROCK Substrate Coated Plate (Part No 241601): One strip well 96-well plate pre-coated with recombinant MYPT1.Buffer: 25 mM Tris, pH 7.5, 10 mM MgCl2, 5 mM Glycerol-2-Phosphate, 0.1 mM Na3VO4; 1% DMSO; 2.5 mM DTT; (Enzyme: ROCK active-II) (Cell Biolabs, Catalog #STA-406, Part No. 241505) 0.1 ng/μl.ATP Solution (Part No. 241604): 100 mM ATP. Final concentration of ATP in reaction mixture: 250 μM.Anti-phospho-MYPT1 (Thr696) (Part No. 241603).Secondary Antibody, HRP Conjugate (Part No. 231003).Biotinylated substrate, diluted to 0.25 μM with buffer described above (without ATP).Steps:1. Purified kinase or cell lysate sample can be used directly in the kinase assay or further diluted with 1× Kinase Buffer. Each sample should be assayed in duplicate.2. Add 90 μL of the diluted active ROCK-II positive control or unknown ROCK samples to the wells of the substrate plate.3. Initiate the kinase reaction by adding 10 μL of the 10× Kinase Reaction Buffer containing DTT and ATP. Mix well.4. Cover with a plate cover and incubate the wells at 30° C. for 30-60 minutes with gentle agitation.5. Stop kinase reaction by flicking out the content or by adding 50 μL of 0.5M EDTA, pH 8.0, to each well.6. Remove the plate cover and empty wells. Wash microwell strips 3 times with 250 μL 1× Wash Buffer per well with thorough aspiration between each wash. After the last wash, empty wells and tap microwell strips on absorbent pad or paper towel to remove excess 1× Wash Buffer.7. Add 100 μL of the diluted anti-phospho-MYPT1 (Thr696) antibody to each well.8. Cover with the plate cover and incubate at room temperature for 1 hour on an orbital shaker.9. Remove the plate cover and empty wells. Wash the strip wells 3 times according to step 6 above.10. Add 100 μL of the diluted HRP-conjugated secondary antibody to each well.11. Cover with the plate cover and incubate at room temperature for 1 hour on an orbital shaker.12. Remove the plate cover and empty wells. Wash microwell strips 3 times according to step 6 above. Proceed immediately to the next step.13. Warm Substrate Solution to room temperature. Add 100 μL of Substrate Solution to each well, including the blank wells. Incubate at room temperature for 5-20 minutes on an orbital shaker.14. Stop the enzyme reaction by adding 100 μL of Stop Solution into each well, including the blank wells. Results should be read immediately (color will fade over time).15. Read absorbance of each microwell on a spectrophotometer using 450 nm as the primary wave length.
Rho-associated protein kinase 2, sequence (O75116 whole entry): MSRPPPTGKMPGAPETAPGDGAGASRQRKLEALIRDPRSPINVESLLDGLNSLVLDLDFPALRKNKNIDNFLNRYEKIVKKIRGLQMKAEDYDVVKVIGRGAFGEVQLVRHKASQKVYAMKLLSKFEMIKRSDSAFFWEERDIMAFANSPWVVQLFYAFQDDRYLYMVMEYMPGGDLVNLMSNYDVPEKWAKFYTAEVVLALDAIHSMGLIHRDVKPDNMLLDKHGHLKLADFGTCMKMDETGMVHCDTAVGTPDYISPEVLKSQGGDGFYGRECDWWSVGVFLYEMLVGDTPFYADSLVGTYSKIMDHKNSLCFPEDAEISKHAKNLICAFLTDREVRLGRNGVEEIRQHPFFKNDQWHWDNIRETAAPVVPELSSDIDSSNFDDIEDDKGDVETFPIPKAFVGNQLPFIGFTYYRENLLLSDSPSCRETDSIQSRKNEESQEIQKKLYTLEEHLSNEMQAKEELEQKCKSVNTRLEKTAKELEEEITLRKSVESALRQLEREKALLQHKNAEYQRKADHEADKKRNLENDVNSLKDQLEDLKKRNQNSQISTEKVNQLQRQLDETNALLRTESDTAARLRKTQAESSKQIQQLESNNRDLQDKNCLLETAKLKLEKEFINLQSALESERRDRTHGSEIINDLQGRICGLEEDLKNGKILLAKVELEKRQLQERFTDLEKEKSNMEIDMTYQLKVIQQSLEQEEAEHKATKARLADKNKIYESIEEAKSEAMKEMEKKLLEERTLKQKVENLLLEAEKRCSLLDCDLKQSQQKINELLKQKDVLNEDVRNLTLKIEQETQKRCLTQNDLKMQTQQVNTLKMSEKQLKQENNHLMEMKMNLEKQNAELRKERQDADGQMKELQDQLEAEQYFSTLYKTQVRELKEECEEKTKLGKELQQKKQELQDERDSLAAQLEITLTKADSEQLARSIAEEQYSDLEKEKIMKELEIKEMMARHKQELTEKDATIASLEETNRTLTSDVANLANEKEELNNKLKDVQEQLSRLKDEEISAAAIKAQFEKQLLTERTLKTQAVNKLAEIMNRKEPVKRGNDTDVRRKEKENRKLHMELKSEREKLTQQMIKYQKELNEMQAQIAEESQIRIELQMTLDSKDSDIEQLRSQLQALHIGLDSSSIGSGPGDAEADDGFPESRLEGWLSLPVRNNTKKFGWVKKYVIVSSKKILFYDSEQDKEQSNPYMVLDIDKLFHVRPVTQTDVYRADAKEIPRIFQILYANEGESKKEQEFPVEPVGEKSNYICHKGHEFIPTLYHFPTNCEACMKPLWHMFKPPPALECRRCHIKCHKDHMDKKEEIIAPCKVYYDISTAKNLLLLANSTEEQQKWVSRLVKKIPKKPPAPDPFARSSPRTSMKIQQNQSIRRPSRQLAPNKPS
On the technique in general: ELISA stands for enzyme-linked immunosorbent assay.

SMILES strings stand for the structures.

What is called IC50 is the concentration needed to halve the response being measured. The low end stands for greater potency, the high end for weaker potency. For the compound `CN(C)CCN(Cc1ccc(F)cc1)C(=O)Nc1cccc2cnccc12` [US10696638, formula (I) 5], the IC50 is > 1000 nM.

As for `CN(C)CCN(Cc1ccc(F)cc1)C(=O)Nc1ccc2cnccc2c1` [US10696638, Table 1.2], the IC50 was > 1000 nM.

As to `O=C(Nc1ccc2cnccc2c1)N[C@@H](CO)c1ccccc1` [US10696638, Table 1.6], the IC50 is > 1000 nM.

`O=C(Nc1cccc2cnccc12)N(Cc1ccc(Cl)cc1)C1CCNCC1` [US10696638, formula (I) 9]: the IC50 is > 1000 nM.

As to `O=C(Nc1cccc2cnccc12)N[C@@H](CO)c1ccccc1` [US10696638, formula (I) 4], the IC50 is > 1000 nM.
